Measured values published in PMC11604427 (Frontiers in Pharmacology, 2024).

What was measured:
Assay in all cases: SelectScreen kinase selectivity assay
Type in all cases: biochemical
[1] = target: T1, ABL1 (Homo sapiens, UniProt P00519)
T1 construct: purchased Thermo Fisher Scientific (SelectScreen service)
Experimental: (§1) The kinase selectivity analysis of PKHD-5 was performed using the SelectScreen kinase analysis service provided by Thermo Fisher Scientific. The experiment initially involved the preparation of a series of inhibitor solutions at varying concentrations, which were then reacted with various kinase targets under standardized conditions to calculate the percentage inhibition for each test solution. Ultimately, the IC50 values were calculated based on the concentration-inhibition curves by fitting a four-parameter logistic curve, thereby assessing the potency and selectivity of the inhibitors. The analysis results are detailed in Supplementary Table S1.

[2] = target: T2, BLK (Homo sapiens, UniProt P51451)
T2 construct: purchased Thermo Fisher Scientific (SelectScreen service)
Experimental: as §1

[3] = target: T3, BMX (Homo sapiens, UniProt P51813)
T3 construct: purchased Thermo Fisher Scientific (SelectScreen service)
Experimental: as §1

[4] = target: T4, BTK (Homo sapiens, UniProt Q06187)
T4 construct: purchased Thermo Fisher Scientific (SelectScreen service)
Experimental: as §1

[5] = target: T5, CDK1 (Homo sapiens, UniProt P06493)
T5 construct: purchased Thermo Fisher Scientific (SelectScreen service)
Experimental: as §1

[6] = target: T6, CSF1R (Homo sapiens, UniProt P07333)
T6 construct: purchased Thermo Fisher Scientific (SelectScreen service)
Experimental: as §1

[7] = target: T7, DDR1 (Homo sapiens, UniProt Q08345)
T7 construct: purchased Thermo Fisher Scientific (SelectScreen service)
Experimental: as §1

[8] = target: T8, EPHA1 (Homo sapiens, UniProt P21709)
T8 construct: purchased Thermo Fisher Scientific (SelectScreen service)
Experimental: as §1

[9] = target: T9, EPHA5 (Homo sapiens, UniProt P54756)
T9 construct: purchased Thermo Fisher Scientific (SelectScreen service)
Experimental: as §1

[10] = target: T10, EPHA6 (Homo sapiens, UniProt Q9UF33)
T10 construct: purchased Thermo Fisher Scientific (SelectScreen service)
Experimental: as §1

[11] = target: T11, EPHA7 (Homo sapiens, UniProt Q15375)
T11 construct: purchased Thermo Fisher Scientific (SelectScreen service)
Experimental: as §1

[12] = target: T12, EPHA8 (Homo sapiens, UniProt P29322)
T12 construct: purchased Thermo Fisher Scientific (SelectScreen service)
Experimental: as §1

[13] = target: T13, EPHB2 (Homo sapiens, UniProt P29323)
T13 construct: purchased Thermo Fisher Scientific (SelectScreen service)
Experimental: as §1

[14] = target: T14, ERBB2 (Homo sapiens, UniProt P04626)
T14 construct: purchased Thermo Fisher Scientific (SelectScreen service)
Experimental: as §1

[15] = target: T15, ERBB4 (Homo sapiens, UniProt Q15303)
T15 construct: purchased Thermo Fisher Scientific (SelectScreen service)
Experimental: as §1

[16] = target: T16, FES (Homo sapiens, UniProt P07332)
T16 construct: purchased Thermo Fisher Scientific (SelectScreen service)
T16 sequence (P07332 whole entry): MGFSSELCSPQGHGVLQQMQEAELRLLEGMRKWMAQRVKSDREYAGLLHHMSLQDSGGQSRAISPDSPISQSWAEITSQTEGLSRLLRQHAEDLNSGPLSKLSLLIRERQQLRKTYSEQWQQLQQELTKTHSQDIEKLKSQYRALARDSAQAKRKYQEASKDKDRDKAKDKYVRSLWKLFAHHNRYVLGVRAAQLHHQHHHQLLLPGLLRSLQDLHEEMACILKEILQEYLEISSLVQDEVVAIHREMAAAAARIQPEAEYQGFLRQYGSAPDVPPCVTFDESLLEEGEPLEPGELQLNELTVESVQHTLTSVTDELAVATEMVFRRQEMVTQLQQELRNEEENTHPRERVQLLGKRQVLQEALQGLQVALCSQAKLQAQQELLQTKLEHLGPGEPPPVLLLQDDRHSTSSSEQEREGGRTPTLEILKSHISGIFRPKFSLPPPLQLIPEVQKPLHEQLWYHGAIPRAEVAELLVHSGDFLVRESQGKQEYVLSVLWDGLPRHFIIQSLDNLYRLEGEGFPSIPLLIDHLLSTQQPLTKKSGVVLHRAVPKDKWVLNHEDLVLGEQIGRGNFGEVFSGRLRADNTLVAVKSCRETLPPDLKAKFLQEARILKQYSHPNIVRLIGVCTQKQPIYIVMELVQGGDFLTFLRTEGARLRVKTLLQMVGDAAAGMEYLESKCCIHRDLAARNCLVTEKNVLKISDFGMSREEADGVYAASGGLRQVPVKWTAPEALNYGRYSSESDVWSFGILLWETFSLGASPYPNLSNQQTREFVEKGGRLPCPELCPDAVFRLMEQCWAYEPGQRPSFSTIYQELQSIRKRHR
Experimental: as §1

[17] = target: T17, FGFR2 (Homo sapiens, UniProt P21802)
T17 construct: purchased Thermo Fisher Scientific (SelectScreen service)
Experimental: as §1

[18] = target: T18, FGFR3 (Homo sapiens, UniProt P22607)
T18 construct: purchased Thermo Fisher Scientific (SelectScreen service)
Experimental: as §1

[19] = target: T19, FGFR4 (Homo sapiens, UniProt P22455)
T19 construct: purchased Thermo Fisher Scientific (SelectScreen service)
T19 sequence (P22455 22-802): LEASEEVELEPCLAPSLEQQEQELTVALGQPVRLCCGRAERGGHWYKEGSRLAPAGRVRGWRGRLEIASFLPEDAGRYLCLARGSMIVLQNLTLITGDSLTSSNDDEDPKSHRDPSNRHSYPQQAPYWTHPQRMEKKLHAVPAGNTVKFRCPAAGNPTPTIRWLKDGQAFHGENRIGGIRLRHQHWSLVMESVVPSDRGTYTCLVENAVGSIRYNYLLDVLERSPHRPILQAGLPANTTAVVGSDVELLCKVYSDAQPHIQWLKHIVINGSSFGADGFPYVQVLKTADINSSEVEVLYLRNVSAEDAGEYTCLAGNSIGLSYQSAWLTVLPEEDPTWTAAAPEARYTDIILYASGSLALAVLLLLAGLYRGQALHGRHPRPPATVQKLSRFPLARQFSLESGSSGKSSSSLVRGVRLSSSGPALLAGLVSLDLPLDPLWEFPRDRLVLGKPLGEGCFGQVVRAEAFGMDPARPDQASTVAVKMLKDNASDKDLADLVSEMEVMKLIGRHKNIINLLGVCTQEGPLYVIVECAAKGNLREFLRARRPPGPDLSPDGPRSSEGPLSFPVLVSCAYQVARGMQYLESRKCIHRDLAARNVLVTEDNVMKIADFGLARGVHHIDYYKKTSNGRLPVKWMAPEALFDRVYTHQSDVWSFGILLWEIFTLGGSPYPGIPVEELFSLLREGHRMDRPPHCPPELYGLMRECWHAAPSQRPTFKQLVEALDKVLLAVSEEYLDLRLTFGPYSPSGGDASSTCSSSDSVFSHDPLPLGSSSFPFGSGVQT
Experimental: as §1

[20] = target: T20, FGR (Homo sapiens, UniProt P09769)
T20 construct: purchased Thermo Fisher Scientific (SelectScreen service)
Experimental: as §1

[21] = target: T21, FRK (Homo sapiens, UniProt P42685)
T21 construct: purchased Thermo Fisher Scientific (SelectScreen service)
Experimental: as §1

[22] = target: T22, HCK (Homo sapiens, UniProt P08631)
T22 construct: purchased Thermo Fisher Scientific (SelectScreen service)
Experimental: as §1

[23] = target: T23, INSR (Homo sapiens, UniProt P06213)
T23 construct: purchased Thermo Fisher Scientific (SelectScreen service)
T23 sequence (P06213 28-1382): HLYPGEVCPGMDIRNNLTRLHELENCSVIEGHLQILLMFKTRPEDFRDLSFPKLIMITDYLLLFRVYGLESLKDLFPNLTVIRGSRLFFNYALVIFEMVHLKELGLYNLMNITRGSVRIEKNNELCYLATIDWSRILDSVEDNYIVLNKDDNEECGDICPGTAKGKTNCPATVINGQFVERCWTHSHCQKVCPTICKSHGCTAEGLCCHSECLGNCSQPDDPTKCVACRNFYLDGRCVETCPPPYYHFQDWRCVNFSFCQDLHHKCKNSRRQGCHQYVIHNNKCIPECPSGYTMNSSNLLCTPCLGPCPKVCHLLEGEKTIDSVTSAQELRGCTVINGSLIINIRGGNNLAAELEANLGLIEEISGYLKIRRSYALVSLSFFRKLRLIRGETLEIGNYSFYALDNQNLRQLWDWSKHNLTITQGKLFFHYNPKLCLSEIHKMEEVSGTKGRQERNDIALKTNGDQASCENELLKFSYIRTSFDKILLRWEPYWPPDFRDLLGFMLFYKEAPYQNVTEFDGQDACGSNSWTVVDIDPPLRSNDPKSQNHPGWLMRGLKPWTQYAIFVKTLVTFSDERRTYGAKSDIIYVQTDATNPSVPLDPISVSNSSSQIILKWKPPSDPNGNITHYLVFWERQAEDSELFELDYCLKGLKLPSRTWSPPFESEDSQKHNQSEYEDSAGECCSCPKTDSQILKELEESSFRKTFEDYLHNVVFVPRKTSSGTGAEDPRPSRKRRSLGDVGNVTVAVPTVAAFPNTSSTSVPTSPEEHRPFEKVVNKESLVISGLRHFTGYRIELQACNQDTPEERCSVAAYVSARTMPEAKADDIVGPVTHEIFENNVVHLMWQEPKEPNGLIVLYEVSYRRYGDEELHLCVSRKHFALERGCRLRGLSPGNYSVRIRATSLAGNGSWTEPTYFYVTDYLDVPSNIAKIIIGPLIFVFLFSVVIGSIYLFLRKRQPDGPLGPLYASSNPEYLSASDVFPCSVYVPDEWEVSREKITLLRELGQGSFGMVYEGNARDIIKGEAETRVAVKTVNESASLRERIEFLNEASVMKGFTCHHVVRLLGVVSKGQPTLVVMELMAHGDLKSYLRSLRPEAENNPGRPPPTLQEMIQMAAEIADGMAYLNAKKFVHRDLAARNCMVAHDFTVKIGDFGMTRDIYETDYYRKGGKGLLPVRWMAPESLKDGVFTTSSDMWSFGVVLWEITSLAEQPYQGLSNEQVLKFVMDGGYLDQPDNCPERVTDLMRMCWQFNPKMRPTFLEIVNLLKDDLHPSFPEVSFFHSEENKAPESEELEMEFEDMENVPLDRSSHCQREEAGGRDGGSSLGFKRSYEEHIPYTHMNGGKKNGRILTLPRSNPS
Experimental: as §1

[24] = target: T24, INSRR (Homo sapiens, UniProt P14616)
T24 construct: purchased Thermo Fisher Scientific (SelectScreen service)
Experimental: as §1

[25] = target: T25, ITK (Homo sapiens, UniProt Q08881)
T25 construct: purchased Thermo Fisher Scientific (SelectScreen service)
Experimental: as §1

[26] = target: T26, KIT (Homo sapiens, UniProt P10721)
T26 construct: purchased Thermo Fisher Scientific (SelectScreen service)
Experimental: as §1

[27] = target: T27, LTK (Homo sapiens, UniProt P29376)
T27 construct: purchased Thermo Fisher Scientific (SelectScreen service)
Experimental: as §1

[28] = target: T28, LYN (Homo sapiens, UniProt P07948)
T28 construct: purchased Thermo Fisher Scientific (SelectScreen service)
Experimental: as §1

[29] = target: T29, MET (Homo sapiens, UniProt P08581)
T29 construct: purchased Thermo Fisher Scientific (SelectScreen service)
Experimental: as §1

[30] = target: T30, MST1R (Homo sapiens, UniProt Q04912)
T30 construct: purchased Thermo Fisher Scientific (SelectScreen service)
T30 sequence (Q04912 25-1400): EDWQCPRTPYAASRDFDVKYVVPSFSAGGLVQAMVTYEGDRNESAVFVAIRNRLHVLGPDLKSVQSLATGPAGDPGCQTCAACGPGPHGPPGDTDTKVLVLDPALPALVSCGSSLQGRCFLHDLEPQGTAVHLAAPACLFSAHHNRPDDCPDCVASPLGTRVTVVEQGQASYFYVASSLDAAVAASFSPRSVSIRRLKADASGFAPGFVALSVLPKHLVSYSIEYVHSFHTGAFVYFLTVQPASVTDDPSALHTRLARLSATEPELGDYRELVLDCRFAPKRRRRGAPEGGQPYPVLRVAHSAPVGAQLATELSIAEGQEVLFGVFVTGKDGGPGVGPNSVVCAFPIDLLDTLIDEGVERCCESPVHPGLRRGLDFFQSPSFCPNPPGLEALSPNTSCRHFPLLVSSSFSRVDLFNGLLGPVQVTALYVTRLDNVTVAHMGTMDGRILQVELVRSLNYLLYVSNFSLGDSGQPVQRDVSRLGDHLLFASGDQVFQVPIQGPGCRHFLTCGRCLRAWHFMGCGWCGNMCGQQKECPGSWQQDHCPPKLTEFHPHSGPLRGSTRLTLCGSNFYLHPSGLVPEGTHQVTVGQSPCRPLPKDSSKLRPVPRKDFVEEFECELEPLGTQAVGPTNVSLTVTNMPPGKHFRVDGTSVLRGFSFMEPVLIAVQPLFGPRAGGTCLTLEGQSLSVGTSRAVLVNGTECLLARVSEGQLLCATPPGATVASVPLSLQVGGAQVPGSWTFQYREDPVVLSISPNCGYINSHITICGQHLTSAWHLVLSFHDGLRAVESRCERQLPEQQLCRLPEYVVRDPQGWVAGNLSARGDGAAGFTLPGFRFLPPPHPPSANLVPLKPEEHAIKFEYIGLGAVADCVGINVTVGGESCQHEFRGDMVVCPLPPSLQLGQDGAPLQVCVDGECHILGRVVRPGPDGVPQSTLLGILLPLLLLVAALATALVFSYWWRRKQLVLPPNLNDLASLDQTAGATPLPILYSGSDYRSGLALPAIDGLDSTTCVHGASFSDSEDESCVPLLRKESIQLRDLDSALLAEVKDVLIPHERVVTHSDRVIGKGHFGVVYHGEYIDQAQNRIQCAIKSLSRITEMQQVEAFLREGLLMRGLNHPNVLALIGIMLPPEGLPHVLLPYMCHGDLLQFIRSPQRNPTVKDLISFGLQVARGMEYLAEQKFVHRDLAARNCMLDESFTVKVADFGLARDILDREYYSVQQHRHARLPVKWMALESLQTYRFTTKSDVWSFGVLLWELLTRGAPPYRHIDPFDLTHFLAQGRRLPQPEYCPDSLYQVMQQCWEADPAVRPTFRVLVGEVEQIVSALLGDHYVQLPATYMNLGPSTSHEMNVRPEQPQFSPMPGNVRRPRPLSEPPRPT
Experimental: as §1

[31] = target: T31, NTRK1 (Homo sapiens, UniProt P04629)
T31 construct: purchased Thermo Fisher Scientific (SelectScreen service)
T31 sequence (P04629 33-796): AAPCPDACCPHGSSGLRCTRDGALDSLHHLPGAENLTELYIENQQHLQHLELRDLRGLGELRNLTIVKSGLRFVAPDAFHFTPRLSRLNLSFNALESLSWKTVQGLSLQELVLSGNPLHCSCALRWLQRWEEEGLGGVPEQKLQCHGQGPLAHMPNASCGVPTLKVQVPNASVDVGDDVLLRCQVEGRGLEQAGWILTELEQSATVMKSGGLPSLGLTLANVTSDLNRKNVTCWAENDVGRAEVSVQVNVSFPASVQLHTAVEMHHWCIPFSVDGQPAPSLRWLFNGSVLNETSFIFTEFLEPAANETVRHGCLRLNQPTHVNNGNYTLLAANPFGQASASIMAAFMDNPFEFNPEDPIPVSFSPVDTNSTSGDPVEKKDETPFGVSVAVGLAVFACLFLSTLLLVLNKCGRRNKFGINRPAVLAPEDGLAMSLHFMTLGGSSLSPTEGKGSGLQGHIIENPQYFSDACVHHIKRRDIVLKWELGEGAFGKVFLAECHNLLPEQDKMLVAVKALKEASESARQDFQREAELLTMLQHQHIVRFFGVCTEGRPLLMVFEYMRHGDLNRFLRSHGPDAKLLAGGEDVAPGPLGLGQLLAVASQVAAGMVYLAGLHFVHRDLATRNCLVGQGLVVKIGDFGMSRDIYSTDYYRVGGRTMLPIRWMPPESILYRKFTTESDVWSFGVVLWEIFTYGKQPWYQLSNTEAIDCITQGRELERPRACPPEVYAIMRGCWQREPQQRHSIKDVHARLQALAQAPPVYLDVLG
Experimental: as §1

[32] = target: T32, NTRK2 (Homo sapiens, UniProt Q16620)
T32 construct: purchased Thermo Fisher Scientific (SelectScreen service)
Experimental: as §1

[33] = target: T33, NTRK3 (Homo sapiens, UniProt Q16288)
T33 construct: purchased Thermo Fisher Scientific (SelectScreen service)
Experimental: as §1

[34] = target: T34, PIM1 (Homo sapiens, UniProt P11309)
T34 construct: purchased Thermo Fisher Scientific (SelectScreen service)
Experimental: as §1

[35] = target: T35, PLK2 (Homo sapiens, UniProt Q9NYY3)
T35 construct: purchased Thermo Fisher Scientific (SelectScreen service)
Experimental: as §1

[36] = target: T36, PLK3 (Homo sapiens, UniProt Q9H4B4)
T36 construct: purchased Thermo Fisher Scientific (SelectScreen service)
Experimental: as §1

[37] = target: T37, RAF1 (Homo sapiens, UniProt P04049, Y340D/Y341D)
T37 construct: purchased Thermo Fisher Scientific (SelectScreen service)
Experimental: as §1

[38] = target: T38, ROS1 (Homo sapiens, UniProt P08922)
T38 construct: purchased Thermo Fisher Scientific (SelectScreen service)
Experimental: as §1

[39] = target: T39, TYRO3 (Homo sapiens, UniProt Q06418)
T39 construct: purchased Thermo Fisher Scientific (SelectScreen service)
Experimental: as §1

[40] = target: T40, YES1 (Homo sapiens, UniProt P07947)
T40 construct: purchased Thermo Fisher Scientific (SelectScreen service)
Experimental: as §1

[41] = target: T41, ZAK (Homo sapiens, UniProt Q9NYL2)
T41 construct: purchased Thermo Fisher Scientific (SelectScreen service)
Experimental: as §1

[42] = target: T42, ZAP70 (Homo sapiens, UniProt P43403)
T42 construct: purchased Thermo Fisher Scientific (SelectScreen service)
Experimental: as §1

Measured: IC50

Cc1ccc(O)c(C)c1-n1c(N)c(C(N)=O)c2cc(CCCCCC(=O)NO)c(C)nc21 [PKHD-5]
> 50 µM: all assays above
